In US10463639B2, “Compounds as modulators of a mutant CFTR protein and their use for treating diseases associated with CFTR protein malfunction” (INSTYTUT BIOCHEMII I BIOFIZYKI PAN, priority 2010, dated 2019):

Assays:
ΔF508-CFTR [1] = molecular target: T1, ΔF508-CFTR (Homo sapiens, UniProt P13569, DEL508-508); test: Iodide efflux (corrector effect) in ΔF508-CFTR HeLa cells after 24 hour pre-treatment; type: cell-based; settings: ΔF508-CFTR HeLa cells; for cAMP-stimulated radiolabel iodide efflux: 24 hour pre-treatment, compound at 1 μM
T1 construct: expressed in transfected cells; host or cells: HeLa cells, stably transfected (pTracer-based plasmid pTCF-F508del), provided by Pascale Fanen (Inserm U.468)
Method: Cultures were done at 37° C. in a humidified incubator with 5% CO2.
47(4): p. […] Marivingt-Mounir, C, et al., Synthesis, SAR, crystal structure, and biological evaluation of benzoquinoliziniums as activators of wild-type and mutant cystic fibrosis transmembrane conductance regulator channels. […] 47(4): p. […] After washing, cells were incubated with 1 ml of modified Earle's salt solution. After 1 min, the medium was removed to be counted and was quickly replaced by 1 ml of the same medium. This procedure was repeated every 1 min for 8 min. The first three aliquots were used to establish a stable baseline in efflux buffer alone. Medium containing cocktail aiming to increase intracellular cAMP (10 μM forskolin and 30 μM genistein) was used for next aliquots in order to activate CFTR chloride channels. At the end of the incubation, the medium was recovered, and cells were solubilized in 1 N NaOH. The radioactivity was determined using a g-counter (LKB).
t1 and t2 are successive time points.
Data are presented as the mean±S.E. of n separate experiments.
Differences were considered statistically significant using the Student's t test when the p value was less than 0.05.
To test drug correction of ΔF508-CFTR trafficking and function we evaluated halide permeability by a macroscopic assay using a robotic cell-based methodology using the I^− efflux technique. […]

ΔF508-CFTR [2] = molecular target: T1, ΔF508-CFTR; test: Whole cell patch-clamp recordings of cAMP-dependent chloride currents in HeLa cells; type: cell-based; settings: 24 h treatment, 1 μM (each), compared to controls
Method: Technique for patch-clamp recordings in the whole cell configuration has been described, such as in Hinzpeter, A. et al. Association between Hsp90 and the ClC-2 chloride channel upregulates channel function. American journal of physiology. Cell physiology 290, C45-56(2006) and Tanguy, G. et al. CSN5 binds to misfolded CFTR and promotes its degradation. Biochimica et biophysica acta 1783, 1189-99(2008). Stably transfected cells were plated in 35 mm cell culture plastic Petri dishes that were mounted on the stage of an inverted microscope. Patch-clamp experiments were performed at room temperature with an Axopatch 200A amplifier controlled by a computer via a digitdata 1440 interface (Axon Intruments, USA). Pipettes were pulled from hard glass (Kimax 51) using a Setter micropipette puller and their tips were fire-polished. Current recordings were performed using the nystatin-perforated patch clamp configuration. Nystatin stock solution (50 mg/ml) was prepared daily in DMSO. The stock solution was diluted (1:250) in the internal solution which was then sonicated during 1 minute. The internal solution contained the following (in mM): 131 NaCl, 2 MgCl2, and 10 Hepes-Na^+, pH 7.3, adjusted with NaOH. […]
Currents were recorded by application of regular voltage pulses of 60 mV amplitude during 1 second, from a holding potential of 0 mV, with an interval of 3 seconds. […]
When maximal stimulation was reached, cells were bathed with 5 μM of the specific CFTRinhibitor, CFTRinh-172, added to the CPT-cAMP solution. CFTR-currents were defined as the differences in current amplitudes recorded during maximum stimulation by CPT-cAMP and after inhibition by CFTRinh-172.
The activity of the different compounds was also evaluated in patch-clamp experiments. FIG. 6a summarizes the mean values of current amplitudes recorded at −60 mV in the different experimental conditions. CFTR-related current density (IΔF508-CFTR; pA/pF) is defined as cAMP-stimulated current minus the current recorded after inhibition by CFTR inh-172 at 5 μM, and normalized to cell capacitance. […]

T1 sequence (P13569 with tags, fused parts or gaps DEL508-508): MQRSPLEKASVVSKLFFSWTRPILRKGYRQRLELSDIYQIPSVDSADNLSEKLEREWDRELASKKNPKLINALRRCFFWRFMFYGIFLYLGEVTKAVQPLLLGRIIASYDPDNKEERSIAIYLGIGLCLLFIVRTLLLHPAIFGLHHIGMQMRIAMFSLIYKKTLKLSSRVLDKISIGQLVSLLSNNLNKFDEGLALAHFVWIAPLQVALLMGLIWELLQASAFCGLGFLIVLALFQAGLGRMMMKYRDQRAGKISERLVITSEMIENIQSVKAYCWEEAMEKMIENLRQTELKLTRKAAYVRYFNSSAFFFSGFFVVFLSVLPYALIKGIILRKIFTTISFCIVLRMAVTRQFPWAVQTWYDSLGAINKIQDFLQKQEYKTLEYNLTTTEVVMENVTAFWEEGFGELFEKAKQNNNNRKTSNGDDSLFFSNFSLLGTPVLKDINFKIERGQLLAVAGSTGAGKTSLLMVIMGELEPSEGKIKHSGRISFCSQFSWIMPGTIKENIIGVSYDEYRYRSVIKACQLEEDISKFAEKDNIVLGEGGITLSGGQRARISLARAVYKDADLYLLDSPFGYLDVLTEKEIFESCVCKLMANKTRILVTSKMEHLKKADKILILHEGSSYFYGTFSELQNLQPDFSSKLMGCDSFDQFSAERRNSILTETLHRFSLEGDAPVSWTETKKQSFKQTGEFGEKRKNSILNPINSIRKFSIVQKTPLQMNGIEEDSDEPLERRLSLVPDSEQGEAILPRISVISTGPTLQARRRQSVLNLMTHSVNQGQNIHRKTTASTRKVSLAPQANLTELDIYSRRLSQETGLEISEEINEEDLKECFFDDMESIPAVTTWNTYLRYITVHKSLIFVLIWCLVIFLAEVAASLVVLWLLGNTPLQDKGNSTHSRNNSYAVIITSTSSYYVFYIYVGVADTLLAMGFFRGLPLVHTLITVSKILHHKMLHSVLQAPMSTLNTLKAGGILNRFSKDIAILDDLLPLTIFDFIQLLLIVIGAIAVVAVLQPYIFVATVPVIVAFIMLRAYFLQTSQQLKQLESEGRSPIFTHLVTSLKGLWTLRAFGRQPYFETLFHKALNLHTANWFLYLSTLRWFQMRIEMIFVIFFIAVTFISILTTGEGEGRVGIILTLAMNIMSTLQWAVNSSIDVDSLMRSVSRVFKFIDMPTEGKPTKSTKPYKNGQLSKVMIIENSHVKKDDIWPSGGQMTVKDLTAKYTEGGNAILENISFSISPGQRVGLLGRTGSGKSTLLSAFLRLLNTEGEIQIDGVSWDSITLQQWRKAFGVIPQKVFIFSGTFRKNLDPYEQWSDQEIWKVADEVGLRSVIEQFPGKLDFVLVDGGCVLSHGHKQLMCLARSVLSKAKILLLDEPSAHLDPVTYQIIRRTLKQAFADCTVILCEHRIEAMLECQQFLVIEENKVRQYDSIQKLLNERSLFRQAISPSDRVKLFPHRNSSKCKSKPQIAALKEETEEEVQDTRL

Row | SMILES | cAMP-stimulated radiolabel iodide efflux (ΔF508-CFTR [1]) | EC50 (ΔF508-CFTR [1]; wide range of concentrations) [µM] | CFTR-related current density IΔF508-CFTR (current amplitude at −60 mV) (ΔF508-CFTR [2]) | EC50 (iodide efflux) (ΔF508-CFTR [1]; wide range of concentrations) | increase of the effect on iodide efflux when used at 10 μM (ΔF508-CFTR [1]; 10 μM compared with 1 μM) [fold] | stimulated efflux at 10 μM compared with WT-CFTR (ΔF508-CFTR [1]; 10 μM)
1 | O=C(O)c1ccc(C(=O)O)c(C(=O)Nc2ccc3c(c2)Cc2ccccc2-3)c1 [compound 73100, 2-(9H-fluoren-2-ylcarbamoyl)terephthalic acid] | significant increase | 0.844 | did not increase current amplitude | – | – | –
2 | O=c1nc(SCc2cccc([N+](=O)[O-])c2)[nH]c2nc[nH]c12 [compound 118208, 2-[(3-nitrophenyl)methylsulfanyl]-3,7-dihydropurin-6-one] | significant increase | – | did not increase current amplitude | could not be precisely determined | – | –
3 | O=P(O)(CCP(=O)(O)c1ccccc1)c1ccccc1 [compound 407882, 2-[hydroxy(phenyl)phosphoryl]ethyl-phenylphosphinic acid] | significant increase | 10 | did not increase current amplitude | – | 3 | comparable to the value observed for WT-CFTR
